The record followed here is US11254665B2, “Crystalline sulfamide compound” (CHIA TAI TIANQING PHARMACEUTICAL GROUP CO., LTD., priority 2017, dated 2022).

pIC50: −log10 of the molar value.

Data set [1] is described as follows: Pharmacokinetic experiments, single peroral administration. Format: in vivo. The conditions noted are these: rat; male SD rats, oral 5 mg/kg, suspension in 0.5% MC, 0.2% Tween80, plasma. The protocol: Male SD rats were from Beijing Vital River Laboratory Animal Technology Co., Ltd., and divided into groups (3 rats per group). The rats were intragastrically administered with the test sample suspension (5 mg/kg) via a single peroral administration, respectively. The animals were fasted overnight before this study. The fasting time period was from 10 hours before administration to 4 hours after administration. Blood samples were taken at 0.25, 0.5, 1, 2, 4, 6, 8 and 24 hours after administration. After the rats were anesthetized with isoflurane using an anesthesia machine for small animal, and then 0.3 mL whole blood samples were taken from the fundus venous plexus. The blood samples were placed in heparin anticoagulant tubes, and centrifuged for 5 min at 4° C. and 4000 rpm. The plasma was transferred to centrifuge tubes, and stored at −80° C. till analysis. The samples in plasma were extracted through protein precipitation. The liquid extract was analyzed by LC-MS/MS, wherein HPLC conditions were as follows: flow rate 0.4 mL/min; mobile phase A: water/formic acid (99.9/0.1, v/v); mobile phase B: acetonitrile/formic acid (99.9/0.1, v/v); injection volume: 5 μL; column temperature: RT; autosampler temperature: RT; run time: 2.5 min.

A further data set addresses IDH1(R132H) (Homo sapiens, UniProt O75874, R132H). Description: Enzyme assay (NADPH/diaphorase/resazurin), IDH1 mutant inhibition. Format: biochemical. The conditions noted are these: 16 h pre-incubation with enzyme and NADPH at 23° C. From the text:
(§1) Resazurin is a traditional redox dye, and after a redox reaction, it can be reduced from a blue resazurin without fluorescence to a pink fluorescent substance, resorufin, which can be measured and quantified with relative fluorescence unit (RFU) of fluorophotometer (Ex=530-570 nm, Em=590-620 nm). At present, resazurin is widely used for determining the viability of bacteria, cells, etc., and the enzyme activity detection of oxidoreductase. We detected the decrease of cofactor NADPH to determine the inhibitory activity of a compound against IDH1m and detected the generation of cofactor NADPH to determine the inhibitory activity of a compound against IDH WT. […] The amount of the remaining cofactor NADPH after a specific reaction time was quantified via an easily detectable fluorophore.
(§2) The specific operation was as follows: 2.5 μl of the compound diluted in a 3-fold gradient was added to a 384-well plate, followed by adding 5 μl of the reaction buffer (20 mM Tris-HCl, pH 7.5; 150 mM NaCl; 10 mM MgCl2; 0.4 mg/mL BSA (Bovine Serum Albumin) and 2 mM DTT (dithiothreitol)) containing 40 nM IDH1 (R132H/R132C) and 20 μM NADPH. […] After incubating at 23° C. for 10 minutes, fluorescence values were determined through Flexstation 3 at Ex535/Em595. […]
A general note: The colour change of resazurin is a common sign of viable cells or microbes.

Another data set addresses IDH1(R132C) (Homo sapiens, UniProt O75874, R132C). Described as above. The conditions noted are these: 16 h pre-incubation with enzyme and NADPH at 23° C. Format: biochemical.
Excerpt: as §1, §2

Chain of IDH1(R132C) (O75874 whole entry R132C): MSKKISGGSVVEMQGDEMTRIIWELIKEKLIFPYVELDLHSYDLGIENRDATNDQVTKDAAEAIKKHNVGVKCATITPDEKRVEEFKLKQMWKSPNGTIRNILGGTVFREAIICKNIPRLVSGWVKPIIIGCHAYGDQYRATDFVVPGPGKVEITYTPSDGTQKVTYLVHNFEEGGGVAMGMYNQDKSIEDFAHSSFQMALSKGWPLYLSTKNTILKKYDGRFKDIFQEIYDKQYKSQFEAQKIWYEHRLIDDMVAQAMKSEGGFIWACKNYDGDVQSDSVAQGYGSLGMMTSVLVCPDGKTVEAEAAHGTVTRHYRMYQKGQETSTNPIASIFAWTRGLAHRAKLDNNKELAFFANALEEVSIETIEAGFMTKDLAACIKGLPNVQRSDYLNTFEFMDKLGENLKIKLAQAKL
Chain of IDH1(R132H) (O75874 whole entry R132H): as the sequence (O75874 whole entry R132C) above, with C132H counted along it

As a reminder, the Tmax is the time at which the peak concentration occurs. One may read the pIC50 as the negative decadic logarithm of the IC50, by convention in mol/L. Higher therefore signals a low IC50. With `N#Cc1ccnc(N2[C@H](C(=O)N(c3cccc(F)c3)[C@H](C(=O)NC3CC(F)(F)C3)c3ccccc3Cl)CCS2(=O)=O)c1` [Compound of formula I, (S)—N—((S)-1-(2-chlorophenyl)-2-((3,3-difluorocyclobutyl)amino)-2-oxoethyl)-2-(4-cyanopyridin-2-yl)-N-(3-fluorophenyl)-isothiazolidine-3-carboxamide 1,1-dioxide], the time of peak concentration (Tmax) in data set [1] amounted to 4 h. Besides, the pIC50 on IDH1(R132H) and on IDH1(R132C) was greater than 7.70 each time.
